Measurements taken from patent US10821115B2, “Compounds that inhibit Mcl-1 protein” (priority 2017, dated 2020).
Like-named read-outs stand apart in the source and are kept apart here.

Experiments:
[1] = tested on: human multiple myeloma cell line, OPM-2; test: Cell viability assay (OPM-2 10 FBS), CellTiter-Glo; type: cell-based
In short: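 IC50 values come from 4-parameter logistic fits of luminescence signals reflecting cell viability. Treatment lasted 16 h at 37 °C in complete medium with 10% FBS, starting from 3000 cells/well.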

[2] = biological target: recombinant human Mcl-1 (residues 171-327) / Bim interaction (Homo sapiens (Human), UniProt Q07820); test: biochemical; type: binding; conditions: read-out: Mcl-1 HTRF IC50
Chain of recombinant human Mcl-1 (residues 171-327) / Bim interaction (Q07820 171-327): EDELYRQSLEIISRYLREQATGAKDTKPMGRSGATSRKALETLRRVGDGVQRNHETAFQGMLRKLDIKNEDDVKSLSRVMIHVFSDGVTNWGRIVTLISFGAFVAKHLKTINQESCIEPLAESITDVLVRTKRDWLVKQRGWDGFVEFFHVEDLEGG

[3] = Homo sapiens, OPM-2, 16 h, read-out: OPM-2 10% FBS IC50 IP, OPM-2 cells, 10% FBS, 16 h incubation
[4] = 0.1 nM Mcl-1(171-327), 0.05 nM biotin-Bim (51-76)
[5] = Homo sapiens, OPM-2, 16 h, read-out: OPM-2 10% FBS IC50 IP, OPM-2 cells, 10% FBS, 16 h, CellTiter-Glo
[6] = TR-FRET, Mcl-1(171-327) / biotin-Bim (51-76)
[7] = read-out: OPM-2 10% FBS IC50 IP, OPM-2 cells, 10% FBS, 16 h, CellTiter-Glo

Structure (SMILES) | IC50 [1, 3] [nM] | IC50 [2, 4] [nM] | IC50 [1, 5] [nM] | IC50 [2, 6] [nM] | IC50 [1, 7] [nM]
CC(C)CO[C@]1(CN2CCN3CCCC[C@@H]3C2)/C=C/C[C@H](C)[C@@H](C)S(=O)(=O)NC(=O)c2ccc3c(c2)N(C[C@@H]2CC[C@H]21)C[C@@]1(CCCc2cc(Cl)ccc21)CO3 [Example 354, (1S,3′R,6′R,7′R,8′E,11′S,12′R)-6-chloro-11′,12′-dimethyl-7′-(2-methylpropoxy)-7′-((9aR)-octahydro-2H-pyrido[1,2-a]pyrazin-2-ylmethyl)-3,4-dihydro-2H,15′H-spiro[naphthalene-1,22′-[20]oxa[13]thia[1,14]diazatetracyclo [14.7.2.0~3,6~.0~19,24~]pentacosa[8,16,18,24]tetraen]-15′-one 13′,13′-dioxide] | 450 | 0.214 | – | – | –
CO[C@]1(CN2CCN(C(C)C)[C@@H](C)C2)/C=C/C[C@H](C)[C@@H](C)S(=O)(=O)NC(=O)c2ccc3c(c2)N(C[C@@H]2CC[C@H]21)C[C@@]1(CCCc2cc(Cl)ccc21)CO3 [Example 337, (1S,3′R,6′R,7′R,8′E,11′S,12′R)-6-chloro-7′-methoxy-11′,12′-dimethyl-7′-(((3S)-3-methyl-4-(1-methylethyl)-1-piperazinyl)methyl)-3,4-dihydro-2H,15′H-spiro[naphthalene-1,22′-[20]oxa[13]thia[1′14]diazatetracyclo [14.7.2.0~3,6~.0~19,24~]pentacosa[8,16,18,24]tetraen]-15′-one 13′,13′-dioxide] | 59 | 0.09 | – | – | –
C#C[C@]1(OCCN2CCOCC2)/C=C/C[C@H](C)[C@@H](C)S(=O)(=O)NC(=O)c2ccc3c(c2)N(C[C@@H]2CC[C@H]21)C[C@@]1(CCCc2cc(Cl)ccc21)CO3 [Example 100504, (1S,3′R,6′R,7′S,8′E,11′S,12′R)-6-chloro-7′-ethynyl-11′,12′-dimethyl-7′-(2-(4-morpholinyl)ethoxy)-3,4-dihydro-2H,15′H-spiro[naphthalene-1,22′-[20]oxa[13]thia[1,14]diazatetracyclo [14.7.2.0~3,6~.0~19,24~]pentacosa[8,16,18,24]tetraen]-15′-one 13′,13′-dioxide] | – | – | 1890 | 0.803 | –
C[C@@H]1[C@@H](C)CCC[C@@](O)(C#CCCN2CCOCC2)[C@@H]2CC[C@H]2CN2C[C@@]3(CCCc4cc(Cl)ccc43)COc3ccc(cc32)C(=O)NS1(=O)=O [Example 100372, (1S,3′R,6′R,7′S,11S,12R)-6-chloro-7′-hydroxy-11′,12′-dimethyl-7′-(4-(4-morpholinyl)-1-butyn-1-yl)-3,4-dihydro-2H,15′H-spiro[naphthalene-1,22′-[20]oxa[13]thia[1,14]diazatetracyclo [14.7.2.0~3,6~.0~19,24~]pentacosa[16,18,24]trien]-15′-one 13′,13′-dioxide] | – | – | – | 0.165 | 833
C[C@@H]1[C@@H](C)C/C=C/[C@@](O)(CC(=O)N2CCCC2)[C@@H]2CC[C@H]2CN2C[C@@]3(CCCc4cc(Cl)ccc43)COc3ccc(cc32)C(=O)NS1(=O)=O [Example 100252, (1S,3′R,6′R,7′S,8′E,11′S,12′R)-6-chloro-7′-hydroxy-11′,12′-dimethyl-7′-(2-oxo-2-(1-pyrrolidinyl)ethyl)-3,4-dihydro-2H,15′H-spiro[naphthalene-1,22′-[20]oxa[13]thia[1,14]diazatetracyclo [14.7.2.0~3,6~.0~19,24~]pentacosa[8,16,18,24]tetraen]-15′-one 13′,13′-dioxide] | – | – | – | 0.112 | 77
C#C[C@]1(OC)/C=C/C[C@H](C)[C@@H](C)S(=O)(=O)NC(=O)c2ccc3c(c2)N(C[C@@H]2CC[C@H]21)C[C@@]1(CCCc2cc(Cl)ccc21)CO3 [Example 100502, (1S,3′R,6′R,7′S,8′E,11′S,12′R)-6-chloro-7′-ethynyl-7′-methoxy-11′,12′-dimethyl-3,4-dihydro-2H,15′H-spiro[naphthalene-1,22′-[20]oxa[13]thia[1,14]diazatetracyclo [14.7.2.0~3,6~.0~19,24~]pentacosa[8,16,18,24]tetraen]-15′-one 13′,13′-dioxide] | – | – | 393 | 0.29 | –
C[C@@H]1[C@@H](C)C/C=C/[C@@](C)(OCc2cc(F)cc(F)c2)[C@@H]2CC[C@H]2CN2C[C@@]3(CCCc4cc(Cl)ccc43)COc3ccc(cc32)C(=O)NS1(=O)=O (single isomer, unassigned) [Example 100474] | – | – | 387 | 0.405 | –
CO[C@@]1(CC(=O)N2CCN(C)CC2)/C=C/C[C@H](C)[C@@H](C)S(=O)(=O)NC(=O)c2ccc3c(c2)N(C[C@@H]2CC[C@H]21)C[C@@]1(CCCc2cc(Cl)ccc21)CO3 [Example 100376, (1S,3′R,6′R,7′S,8′E,11′S,12′R)-6-chloro-7′-methoxy-11′,12′-dimethyl-7′-(2-(4-methyl-1-piperazinyl)-2-oxoethyl)-3,4-dihydro-2H,15′H-spiro[naphthalene-1,22′-[20]oxa[13]thia[1,14]diazatetracyclo [14.7.2.0~3,6~.0~19,24~]pentacosa[8,16,18,24]tetraen]-15′-one 13′,13′-dioxide] | – | – | 362 | 0.15 | –
CO[C@@]1(CO)CCC[C@H](C)[C@@H](C)S(=O)(=O)NC(=O)c2ccc3c(c2)N(C[C@@H]2CC[C@H]21)C[C@@]1(CCCc2cc(Cl)ccc21)CO3 (stereo in doubt) [Example 100184, (1S,3′R,6′R,7′S,11′S,12′R)-6-chloro-7′-(hydroxymethyl)-7′-methoxy-11′,12′-dimethyl-3,4-dihydro-2H,15′H-spiro[naphthalene-1,22′-[20]oxa[13]thia[1,14]diazatetracyclo [14.7.2.0~3,6~.0~19,24~]pentacosa[16,18,24]rien]-15′-one 13′,13′-dioxide] | – | – | – | 0.717 | 179
CCCCO[C@]1(CN2CCN3CCOC[C@@H]3C2)/C=C/C[C@H](C)[C@@H](C)S(=O)(=O)NC(=O)c2ccc3c(c2)N(C[C@@H]2CC[C@H]21)C[C@@]1(CCCc2cc(Cl)ccc21)CO3 [Example 48, (1S,3′R,6′R,7′R,8′E,11′S,12′R)-7′-butoxy-6-chloro-7′-((9aS)-hexahydropyrazino[2,1-c][1,4]oxazin-8(1H)-ylmethyl)-11′,12′-dimethyl-3,4-dihydro-2H,15′H-spiro[naphthalene-1,22′-[20]oxa[13]thia[1,14]diazatetracyclo [14.7.2.0~3,6~.0~19,24~]pentacosa[8,16,18,24]tetraen]-15′-one 13′,13′-dioxide] | 407 | 0.14 | – | – | –
CO[C@@]1(CC(=O)N2CCN3CCOC[C@H]3C2)/C=C/C[C@H](C)[C@@H](C)S(=O)(=O)NC(=O)c2ccc3c(c2)N(C[C@@H]2CC[C@H]21)C[C@@]1(CCCc2cc(Cl)ccc21)CO3 [Example 100411, (1S,3′R,6′R,7′S,8′E,11′S,12′R)-6-chloro-7′-(2-((9aR)-hexahydropyrazino[2,1-c][1,4]oxazin-8(1H)-yl)-2-oxoethyl)-7′-methoxy-11′,12′-dimethyl-3,4-dihydro-2H,15′H-spiro[naphthalene-1,22′-[20]oxa[13]thia[1,14]diazatetracyclo [14.7.2.0~3,6~.0~19,24~]pentacosa[8,16,18,24]tetraen]-15′-one 13′,13′-dioxide] | – | – | 2100 | 0.584 | –
CO[C@@]1(CC(=O)[C@H](C)CN(C)C)/C=C/C[C@H](C)[C@@H](C)S(=O)(=O)NC(=O)c2ccc3c(c2)N(C[C@@H]2CC[C@H]21)C[C@@]1(CCCc2cc(Cl)ccc21)CO3 (single isomer, unassigned) [Example 100478] | – | – | 4090 | 3.47 | –
